The assay concerns SK-OV3 cells. Kind of assay: preclinical efficacy study on the human ovarian tumor model in mice (tumor volume). To be noted: via tail vein once every three days, 4 doses, measured every third day through the 22nd day. The assay is classed as in vivo.

Experimental: A preclinical efficacy study was conducted on the human ovarian tumor model in mice. The tumor cells used were SK-OV3 cells purchased from ATCC. The mice were 4-6 week old Athymic (nu+/nu+) female mice. The IRL-1620 was intravenously-infused slowly (over 30 seconds).
A solid tumor was induced in each animal using 3 million viable SK-OV3 cells suspended in 200 µl of PBS per animal. After 10 days, when established tumors of 100 mm^3 in diameter were detectable, the mice randomly were divided into six groups of 6 animals per group with each group receiving different treatments. The treatment regimens were administered via the tail vein every third day for a total of 4 doses. […]
The effect of these treatments on the tumor size was measured using a digital caliper for a total of 12 days after drug administration. The mice were monitored and weighed on every third day. […] Progression, stasis, partial regression or complete regression of tumor growth were measured by tumor load measurements with calipers and was calculated using the following formula: (3.14/6) x larger diameter x smaller diameter.

Take `N.N.[Cl][Pt][Cl]` [saline/cisplatin, cisplatin]: the tumor volume entry (Figure 1, cisplatin 2.5 mg/kg with saline or IRL-1620 3 nmol/kg) is “significant reduction in tumor volume”.
On to `O=P1(N(CCCl)CCCl)NCCCO1` (centres unmarked) [saline/cyclophosphamide, cyclophosphamide], for which the tumor volume result (Figure 3, cyclophosphamide 75 mg/kg with saline or IRL-1620 3 nmol/kg) is listed as “significant reduction in tumor volume”.

These data come from patent EP2144607B1, “COMPOSITIONS FOR CONTRIBUTING TO THE TREATMENT OF CANCERS” (Spectrum Pharmaceuticals, Inc., priority 2007, dated 2008).
